Tested on: CD4+ T-cell clones specific for modified GAD65 epitopes
Assay: T-cell clone proliferation assay, [3H]-thymidine incorporation
Type: cell-based, human
Details: GAD154E,164E-specific T cells (data not shown)

## TTG-treated GAD: GAD65 protein unfolded by heating and treated with transglutaminase
  proliferation in response to treated GAD protein: not able to proliferate

Source: article PMC4392921 (Diabetes, 2014)
